Source: US11040036B2, “Pyruvate kinase activators for use in treating blood disorders” (Agios Pharmaceuticals, Inc., priority 2017, dated 2021)

Assays:
wild type PKR [1] = molecular target: T1, wild type PKR (Homo sapiens, UniProt P30613); test: PKR mutant assay (AC50), wild type PKR; assay type: biochemical; details: wild type PKR enzyme; read-out: PKR WT AC50
Summary of the method: (§1)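 Compounds were tested from 100 μM final, 3-fold over 11 points, and held 60 min at room temperature with enzyme (40-400 ng/well wild-type, R510Q or K410E PKR). ADP 0.2-1.65 mM then started the reaction, with PEP 0.1-0.5 mM in pH 7.5 Tris/KCl/MgCl2 buffer. LDH/NADH (180 μM) coupled read-out was taken as A340 change, fitted to AC50.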

PKR K410E = PKR K410E (Homo sapiens, UniProt P30613, K410E); test: PKR mutant assay (AC50), PKR K410E; assay type: biochemical; details: PKR K410E mutant enzyme
Summary of the method: as §1

PKR R510Q = PKR R510Q (Homo sapiens, UniProt P30613, R510Q); test: PKR mutant assay (AC50), PKR R510Q; assay type: biochemical; details: PKR R510Q mutant enzyme; read-out: PK R510Q AC50
Summary of the method: as §1

wild type PKR [2] = molecular target: T1, wild type PKR; test: Cell based ATP assay in purified red blood cells; parameters: endogenous in cells; host or cells: purified red blood cells from blood of healthy volunteers; details: RBCs, overnight at 37° C., ATP levels by Cell-Titer-Glo
Summary of the method: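 ATP content was measured by CellTiter-Glo after overnight exposure to compound at 37 °C. Cells were purified red blood cells from healthy donors, filtered to remove leukocytes and suspended at 1×10^7 cells/mL in AGAM medium. Compounds were serially diluted 1:4, with 0.1% DMSO final.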

Chain of PKR K410E (P30613 whole entry K410E): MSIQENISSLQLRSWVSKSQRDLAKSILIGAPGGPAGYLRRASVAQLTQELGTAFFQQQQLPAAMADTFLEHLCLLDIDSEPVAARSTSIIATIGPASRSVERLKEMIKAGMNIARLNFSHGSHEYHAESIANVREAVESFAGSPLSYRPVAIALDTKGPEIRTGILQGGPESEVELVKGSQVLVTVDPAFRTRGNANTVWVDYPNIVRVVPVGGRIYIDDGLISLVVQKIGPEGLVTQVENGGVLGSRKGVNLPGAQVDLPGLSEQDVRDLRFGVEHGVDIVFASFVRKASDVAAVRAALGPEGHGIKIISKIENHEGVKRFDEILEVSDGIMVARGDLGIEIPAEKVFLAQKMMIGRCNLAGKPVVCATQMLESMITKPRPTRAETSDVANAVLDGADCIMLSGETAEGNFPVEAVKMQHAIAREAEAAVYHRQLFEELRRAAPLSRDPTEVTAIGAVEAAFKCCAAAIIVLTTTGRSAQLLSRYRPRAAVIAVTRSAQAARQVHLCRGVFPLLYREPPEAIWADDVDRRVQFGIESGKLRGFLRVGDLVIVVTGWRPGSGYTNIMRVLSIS
Chain of PKR R510Q (P30613 whole entry R510Q): as the sequence (P30613 whole entry K410E) above, with E410K, R510Q counted along it
T1 sequence (P30613 whole entry): as the sequence (P30613 whole entry K410E) above, with E410K counted along it

AC50 (wild type PKR [1]) | AC50 (PKR K410E) | AC50 (PKR R510Q) | AC50 (wild type PKR [2]) | Cell based ATP assay AC50 (wild type PKR [2]) | Compound
< 300 nM | < 300 nM | < 300 nM | ≤ 1000 nM | – | Cn1c2nc(Cc3cc[nH]n3)sc2c2cnn(Cc3ncsc3C(N)=O)c(=O)c21
< 300 nM | < 300 nM | < 300 nM | ≤ 1000 nM | – | Cn1c2nc(Cc3cc[nH]n3)sc2c2cnn(Cc3cnc(N)s3)c(=O)c21
< 300 nM | < 300 nM | < 300 nM | ≤ 1000 nM | – | Cn1c2nc(Cc3cc[nH]n3)sc2c2cnn(Cc3c[nH]cn3)c(=O)c21
< 300 nM | < 300 nM | < 300 nM | ≤ 1000 nM | – | Cn1c2nc(Cc3ccn[nH]3)sc2c2cnn(Cc3cn[nH]c3)c(=O)c21
< 300 nM | < 300 nM | < 300 nM | ≤ 1000 nM | – | Cn1c2nc(Cc3cc[nH]n3)sc2c2cnn(Cc3c[nH]nn3)c(=O)c21
< 300 nM | < 300 nM | < 300 nM | ≤ 1000 nM | – | Cn1c2nc(Cc3cc[nH]n3)sc2c2cnn(Cc3ccns3)c(=O)c21
< 300 nM | < 300 nM | < 300 nM | ≤ 1000 nM | – | Cn1c2nc(Cc3cc[nH]n3)sc2c2cnn(Cc3nc[nH]n3)c(=O)c21
< 300 nM | < 300 nM | < 300 nM | ≤ 1000 nM | – | Cc1scnc1Cn1ncc2c3sc(Cc4cc[nH]n4)nc3n(C)c2c1=O
< 300 nM | < 300 nM | < 300 nM | ≤ 1000 nM | – | Cn1c2nc(Cc3cscn3)sc2c2cnn(Cc3nccs3)c(=O)c21
< 300 nM | < 300 nM | < 300 nM | ≤ 1000 nM | – | Cn1c2nc(Cc3cc[nH]n3)sc2c2cnn(Cc3ncc[nH]3)c(=O)c21
< 300 nM | < 300 nM | < 300 nM | ≤ 1000 nM | – | Cn1c2nc(Cc3csc(CO)n3)sc2c2cnn(Cc3cc[nH]n3)c(=O)c21
< 300 nM | < 300 nM | < 300 nM | ≤ 1000 nM | – | Cn1c2nc(Cc3ccccn3)sc2c2cnn(Cc3nccs3)c(=O)c21
< 300 nM | < 300 nM | < 300 nM | ≤ 1000 nM | – | Cn1c2nc(Cc3ccccn3)sc2c2cnn(Cc3cc[nH]n3)c(=O)c21
< 300 nM | < 300 nM | < 300 nM | ≤ 1000 nM | – | Cn1c2nc(Cc3csc(CO)n3)sc2c2cnn(Cc3nccs3)c(=O)c21
< 300 nM | < 300 nM | < 300 nM | ≤ 1000 nM | – | Cn1c2nc(Cc3cc[nH]n3)sc2c2cnn(Cc3ncns3)c(=O)c21
< 300 nM | < 300 nM | < 300 nM | ≤ 1000 nM | – | Cn1c2nc(Cc3cscn3)sc2c2cnn(Cc3csc(N)n3)c(=O)c21
< 300 nM | < 300 nM | < 300 nM | ≤ 1000 nM | – | Cn1c2nc(Cc3cscn3)sc2c2cnn(Cc3cscn3)c(=O)c21
> 800 nM | > 800 nM | > 800 nM | > 1000 nM | – | Cn1c2nc(Cc3c[nH]cn3)sc2c2cnn(Cc3ncsc3C(F)(F)F)c(=O)c21
< 300 nM | < 300 nM | < 300 nM | ≤ 1000 nM | – | Cn1c2nc(Cc3c[nH]cn3)sc2c2cnn(Cc3ncsc3Cl)c(=O)c21
< 300 nM | < 300 nM | < 300 nM | ≤ 1000 nM | – | Cn1ccc(Cn2ncc3c4sc(Cc5cscn5)nc4n(C)c3c2=O)n1
< 300 nM | < 300 nM | < 300 nM | ≤ 1000 nM | – | Cn1c2nc(Cc3ccccn3)sc2c2cnn(Cc3csc(N)n3)c(=O)c21
< 300 nM | < 300 nM | < 300 nM | ≤ 1000 nM | – | Cn1c2nc(Cc3ccccn3)sc2c2cnn(Cc3cscn3)c(=O)c21
301 to 800 nM | 301 to 800 nM | 301 to 800 nM | > 1000 nM | – | Cn1c2nc(Cc3cc[nH]n3)sc2c2cnn(Cc3n[nH]cc3OC(F)(F)F)c(=O)c21
< 300 nM | < 300 nM | < 300 nM | ≤ 1000 nM | – | Cn1c2nc(Cc3cc[nH]n3)sc2c2cnn(Cc3coc(N)n3)c(=O)c21
> 800 nM | > 800 nM | < 300 nM | > 1000 nM | – | Cn1cc(CN)c(Cn2ncc3c4sc(Cc5cc[nH]n5)nc4n(C)c3c2=O)n1
> 800 nM | > 800 nM | > 800 nM | > 1000 nM | – | Cn1cc(CC(N)=O)c(Cn2ncc3c4sc(Cc5cc[nH]n5)nc4n(C)c3c2=O)n1

AC50 (wild type PKR [1]) | AC50 (PKR K410E) | AC50 (PKR R510Q) | AC50 (wild type PKR [2]) | Cell based ATP assay AC50 (wild type PKR [2]) | Compound
301 to 800 nM | 301 to 800 nM | > 800 nM | > 1000 nM | – | Cn1c2nc(Cc3cc[nH]n3)sc2c2cnn(Cc3nc[nH]c3C(N)=O)c(=O)c21
< 300 nM | < 300 nM | < 300 nM | ≤ 1000 nM | – | Cn1c2nc(Cc3cc[nH]n3)sc2c2cnn(Cc3csc(F)n3)c(=O)c21
< 300 nM | < 300 nM | < 300 nM | ≤ 1000 nM | – | Cn1c2nc(Cc3cc[nH]n3)sc2c2cnn(Cc3ccnn3N)c(=O)c21
> 800 nM | > 800 nM | > 800 nM | > 1000 nM | – | Cn1c2nc(Cc3cc[nH]n3)sc2c2cnn(Cc3n[nH]c(=O)[nH]3)c(=O)c21
> 800 nM | > 800 nM | > 800 nM | ≤ 1000 nM | – | Cn1c2nc(Cc3cc[nH]n3)sc2c2cnn(Cc3coc(C(N)=O)n3)c(=O)c21
301 to 800 nM | 301 to 800 nM | < 300 nM | > 1000 nM | – | Cn1c2nc(Cc3cc[nH]n3)sc2c2cnn(Cc3cc(=O)[nH][nH]3)c(=O)c21
301 to 800 nM | 301 to 800 nM | 301 to 800 nM | > 1000 nM | – | Cn1c2nc(Cc3cc[nH]n3)sc2c2cnn(Cc3nc[nH]c3N)c(=O)c21
< 300 nM | < 300 nM | < 300 nM | ≤ 1000 nM | – | Cn1c2nc(Cc3cc[nH]n3)sc2c2cnn(Cc3ccnc(N)n3)c(=O)c21
< 300 nM | 301 to 800 nM | < 300 nM | ≤ 1000 nM | – | Cn1c2nc(Cc3cc[nH]n3)sc2c2cnn(Cc3nccc(N)n3)c(=O)c21
< 300 nM | < 300 nM | < 300 nM | ≤ 1000 nM | – | COc1sc(Br)nc1Cc1nc2c(s1)c1cnn(Cc3cc[nH]n3)c(=O)c1n2C
< 300 nM | < 300 nM | < 300 nM | ≤ 1000 nM | – | COc1scnc1Cc1nc2c(s1)c1cnn(Cc3cc[nH]n3)c(=O)c1n2C
> 800 nM | > 800 nM | > 800 nM | > 1000 nM | – | Cn1cc(C(=O)O)c(Cn2ncc3c4sc(Cc5cc[nH]n5)nc4n(C)c3c2=O)n1
< 300 nM | < 300 nM | < 300 nM | ≤ 1000 nM | – | Cn1c2nc(Cc3n[nH]cc3F)sc2c2cnn(Cc3n[nH]cc3Cl)c(=O)c21
< 300 nM | < 300 nM | < 300 nM | ≤ 1000 nM | – | Cn1c2nc(Cc3n[nH]cc3F)sc2c2cnn(Cc3n[nH]cc3C(N)=O)c(=O)c21
< 300 nM | < 300 nM | < 300 nM | ≤ 1000 nM | – | COc1ncccc1Cn1ncc2c3sc(Cc4n[nH]cc4F)nc3n(C)c2c1=O
< 300 nM | < 300 nM | < 300 nM | ≤ 1000 nM | – | Cn1c2nc(Cc3n[nH]cc3F)sc2c2cnn(Cc3ccc[nH]c3=O)c(=O)c21
< 300 nM | < 300 nM | < 300 nM | ≤ 1000 nM | – | Cn1c2nc(Cc3n[nH]cc3F)sc2c2cnn(Cc3n[nH]cc3C#N)c(=O)c21
> 800 nM | > 800 nM | > 800 nM | > 1000 nM | – | CC(=O)Nc1ccc(F)c(Cn2ncc3c4sc(Cc5cnn(C)c5)nc4n(C)c3c2=O)n1
> 800 nM | > 800 nM | > 800 nM | ≤ 1000 nM | – | Cn1ccc(Cn2ncc3c4sc(C(=O)c5cc[nH]n5)nc4n(C)c3c2=O)n1
301 to 800 nM | < 300 nM | < 300 nM | ≤ 1000 nM | – | Cn1c2nc(C(=O)c3cc[nH]n3)sc2c2cnn(Cc3cccc(N)n3)c(=O)c21
> 800 nM | > 800 nM | > 800 nM | > 1000 nM | – | CC(=O)Nc1ccc(F)c(Cn2ncc3c4sc(Cn5ccnc5)nc4n(C)c3c2=O)c1
301 to 800 nM | 301 to 800 nM | < 300 nM | ≤ 1000 nM | – | Cn1c2nc(Cc3ccccn3)sc2c2cnn(Cc3cccnc3)c(=O)c21
> 800 nM | > 800 nM | > 800 nM | – | No Fit | Cn1c2nc(Cn3cncn3)sc2c2cnn(Cc3ccnc(N)n3)c(=O)c21
> 800 nM | > 800 nM | > 800 nM | – | No Fit | Cn1c2nc(Cn3ccnc3)sc2c2cnn(Cc3ccnc(N)n3)c(=O)c21
< 300 nM | < 300 nM | < 300 nM | ≤ 1000 nM | – | CC(c1cc[nH]n1)c1nc2c(s1)c1cnn(Cc3cc[nH]n3)c(=O)c1n2C (stereo not shown)
301 to 800 nM | > 800 nM | 301 to 800 nM | ≤ 1000 nM | – | Cn1c2nc(C(=O)c3cc[nH]n3)sc2c2cnn(Cc3cc[nH]n3)c(=O)c21
